“Also recorded” adds a separate entry of the source.
Tested on: gene expression (mRNA) in peripheral blood (lymphocytes)
Experiment: Gene expression profiling (Affymetrix DNA microarrays) of blood samples of psoriatic patients before and after oral ASM981
Assay type: in vivo, human
Settings: for Mean fold variation: day 13/14 vs baseline
Experimental: The dose used was 60 mg/day, given as 30 mg twice a day (b.i.d.). To make this dose the […] tablets were cut in half using a special cutter (Tablettenteiler NR.96) so as to obtain 30 mg of ASM981 or a matched amount of placebo.
ASM981 was evaluated as treatment for psoriasis using an oral dose of 60 mg (30 mg b.i.d) during a 4 weeks clinical study. The oral formulation used was a highly standardized oral dosage form that could be produced in large amounts and with a highly uniform composition, this was oral formulation A.
The cohort included 10 patients; 8 received oral formulation A and 2 received a placebo. Blood samples were collected before the first administration to establish the gene expression baseline and on days 13 or 14 after treatment with ASM981 or placebo and submitted to gene expression analysis in order to gain insights into the mechanisms of action of the compound.
The RNA from each of the blood samples was extracted and tested on individual DNA microarrays, thus allowing, for each patient, a comparison of gene expression before and after ASM981 treatment. […] Genes that were consistently modulated, i.e., change greater then a factor of two, were sorted in functional categories. Table 4 lists all the identified genes with their symbol, Unigene cluster number, protein accession number and the GenBank accession number for the sequence used to design the Affymetrix probes.
The extraction of the RNA from the samples, the preparation of the target, the hybridization and the analysis of the arrays, were performed according to the methods and protocols recommended by Affymetrix. Total RNA was extracted from the blood samples (lymphocytes) collected on days 0 and 14 using TRIZOL™ (Life Technologies), and purified through RNEASY™ columns (Qiagen) as needed. Good quality total RNA ([…]) was used to synthesize double-stranded cDNA using the SUPERSCRIPT CHOICE SYSTEM™ (Life Technologies). The cDNA was then in vitro transcribed (MEGASCRIPT™ T7 Kit, Ambion) to form biotin-labeled cRNA. The quality of the cRNA was checked on a test array according to the recommendation of Affymetrix. Next, […] of labeled cRNA were hybridized to the probe arrays for 16 hours at 45° C. Arrays were then washed according to the EukGE-WS2 protocol (Affymetrix), and stained with […] of streptavidin-phycoerythrin conjugate (Molecular Probes). The signal was antibody amplified with 2 mg/mL acetylated BSA (Life Technologies), 100 mM MES, 1 M [Na+], 0.05% Tween 20, 0.005% Antiofoam (Sigma), 0.1 mg/mL goat IgG and 0.5 mg/mL biotinylated antibody and re-stained with the streptavidin solution. After washing, the arrays were scanned twice with the GENE ARRAY® scanner (Affymetrix).
The data were analyzed comparing, for each individual patient, the gene expression levels before and after treatment. Only genes that were consistently modulated in at least 5 patients were considered as relevant. These variations were also compared with the gene expression changes observed in the placebo treated patients. During analysis, one chip (patient 44 before treatment) appeared to have very few correctly hybridized genes, and to introduce a bias into the analysis. This pair was excluded to establish average fold change.

CC[C@@H]1/C=C(\C)C[C@H](C)C[C@H](OC)[C@H]2O[C@@](O)(C(=O)C(=O)N3CCCC[C@H]3C(=O)O[C@H](/C(C)=C/[C@@H]3CC[C@H](Cl)[C@H](OC)C3)[C@H](C)[C@@H](O)CC1=O)[C@H](C)C[C@@H]2OC [ASM981, 33-Epichloro-33-desoxy-ascomycin]
Mean fold variation (4-1BB ligand (TNFSF9) mRNA, blood): +2.3 fold
Mean fold variation (ADP/ATP translocase (SLC25A6) mRNA, blood): −3.7 fold
Mean fold variation (ALu RNA binding protein (SRP14) mRNA, blood): −2.9 fold
Mean fold variation (B7 protein (B7) mRNA, blood): +2.9 fold
Mean fold variation (BAP 31 (DXS1357E) mRNA, blood): −9.2 fold
Mean fold variation (BRCA2 (gene symbol ARPC2) mRNA, blood): −6.5 fold
Mean fold variation (Butyrophilin BTF5 (BTN3A1) mRNA, blood): −10.6 fold
Mean fold variation (CAMLG (calcium modulating cyclophilin ligand) mRNA, blood): −5.2 fold
Mean fold variation (CAPL/S100A4 mRNA, blood): −37.8 fold
Mean fold variation (CDC10 homologue (CDC10) mRNA, blood): −6 fold
Mean fold variation (COX6B mRNA, blood): −13.6 fold
Mean fold variation (CSF-1 (CSF1) mRNA, blood): +3.1 fold
Mean fold variation (Calmodulin (CALM2) mRNA, blood): −28.8 fold
Mean fold variation (Clone × 101 (MAP1A) mRNA, blood): +2.2 fold
Mean fold variation (Cyclin D2 (CCND2) mRNA, blood): −16.6 fold
Mean fold variation (Cyclin D3 (CCND3) mRNA, blood): −7.2 fold
Mean fold variation (Cystatin A (CSTA) mRNA, blood): −2.4 fold
Mean fold variation (Cystatin C (CST3) mRNA, blood): −25 fold
Mean fold variation (Cytochrome c oxidase subunit IV (COX4) mRNA, blood): −15.8 fold
Mean fold variation (Cytochrome c oxidase subunit VIc (COX6C) mRNA, blood): −21.1 fold
Mean fold variation (DARC (FY) mRNA, blood): +7 fold
Mean fold variation (EF-1, Elongation factor 1 delta (EEF1D) mRNA, blood): −12.4 fold
Mean fold variation (Epididymal secretory protein mRNA, blood): −19.6 fold
Mean fold variation (FC-epsilon binding protein Galectin 3 (LGALS3) mRNA, blood): −21 fold
Mean fold variation (Farnesyl transferase (FNTA) mRNA, blood): −9 fold
Mean fold variation (Ferritin (FTL) mRNA, blood): −4.4 fold
Mean fold variation (G gamma 11 (GNG11) mRNA, blood): −6.2 fold
Mean fold variation (GPR-9 CCR9 mRNA, blood): +3.4 fold
Mean fold variation (Gamma actin (ACTG1) mRNA, blood): −3.4 fold
Mean fold variation (Glutamine synthase (GLUL) mRNA, blood): −2.6 fold
Mean fold variation (Glutathione peroxidase mRNA, blood): −5.4 fold
Mean fold variation (HLA-DR (HLA-DRA) mRNA, blood): −3.2 fold
Mean fold variation (HLA-E mRNA, first of 2 sequences, blood): −23.4 fold
Mean fold variation (HLA-E mRNA, second of 2 sequences, blood): −4.2 fold
Mean fold variation (HLA-F mRNA, blood): −10.2 fold
Mean fold variation (HLA-I A 26 (HLA-A) mRNA, blood): −4.1 fold
Mean fold variation (HLA-I C (HLA-C) mRNA, blood): −2.9 fold
Mean fold variation (HLH G0S8 (RGS2) mRNA, blood): −10.8 fold
Mean fold variation (HMG-17 (HMG17) mRNA, blood): −15.5 fold
Mean fold variation (Histone H2 (H2AFL) mRNA, blood): −42.6 fold
Mean fold variation (Histone H3.3 (H3F3A) mRNA, blood): −6.6 fold
Mean fold variation (Ii Invariant chain, CD74 mRNA, blood): −46.4 fold
Mean fold variation (KIAA0 151 (IKKE) mRNA, blood): +2.5 fold
Mean fold variation (KIAA0055 (USP8) mRNA, blood): +3.7 fold
Mean fold variation (Kallistatin mRNA, blood): +3.3 fold
Mean fold variation (L-selectin (SELL) mRNA, blood): −46.6 fold
Mean fold variation (LAMP-1 (LAMP1) mRNA, blood): −19.1 fold
Mean fold variation (LAPT5 Lysosomal associated protein (LAPTM5) mRNA, blood): −12.5 fold
Mean fold variation (LFA1a (ITGAL) mRNA, blood): −16.1 fold
Mean fold variation (LFA1b (ITGB2) mRNA, blood): −8.3 fold
Mean fold variation (Lactate dehydrogenase (LDHB) mRNA, blood): −17.1 fold
Mean fold variation (Laminin receptor (LAMR1) mRNA, blood): −7.3 fold
Mean fold variation (Leukotriene A4 hydrolase (LTA4H) mRNA, blood): −8 fold
Mean fold variation (Lone HH109 mRNA, blood): +2 fold
Mean fold variation (MIC-2 CD99 (MIC2) mRNA, blood): −65 fold
Mean fold variation (MTf1 Mitochondrial transcription factor (TFAM) mRNA, blood): +3.2 fold
Mean fold variation (Macrophilin 12 FKBP (FKBP1A) mRNA, blood): −66.2 fold
Mean fold variation (Mitochondrial ubiquinone binding protein (first entry, M26730) mRNA, blood): −5.4 fold
Mean fold variation (Mitochondrial ubiquinone binding protein (second entry of Table 11) mRNA, blood): +6.6 fold
Mean fold variation (Myosin light chain non muscle type mRNA, blood): −15.6 fold
Mean fold variation (Myosin regulatory light chain (MLCB) mRNA, blood): −8.5 fold
Mean fold variation (NRGN Neuragranin mRNA, blood): −3.1 fold
Mean fold variation (Neutrophil cytochrome b light chain (CYBA) mRNA, blood): −34.7 fold
Mean fold variation (Non muscle-type cofilin (CFL1) mRNA, blood): −2.9 fold
Mean fold variation (Nuclear factor Nf-IL6 (CEBPB) mRNA, blood): −6.8 fold
Mean fold variation (Nucleosome assembly protein (NAP1L1) mRNA, blood): −7.7 fold
Mean fold variation (PF-4 (PF4V1) mRNA, blood): −5.2 fold
Mean fold variation (Platelet glycoprotein IIb (ITGA2B) mRNA, blood): −5.2 fold
Mean fold variation (Platelet glycoprotein Ib mRNA, blood): −26.6 fold
Mean fold variation (Prosaposin (PSAP) mRNA, blood): −56.1 fold
Mean fold variation (Prostaglandin endoperoxide synthase 1 (PTGS1) mRNA, blood): −45.9 fold
Mean fold variation (Proteoglycan core protein (PRG1) mRNA, blood): +49 fold
Mean fold variation (Prothymosin alpha (PTMA) mRNA, blood): −71.7 fold
Mean fold variation (Pyrroline5 carboxylate reductase (PYCR1) mRNA, blood): +34 fold
Mean fold variation (RANTES (SCYA5) mRNA, blood): −5.3 fold
Mean fold variation (RSU (RSU1) mRNA, blood): −7.2 fold
Mean fold variation (Ribosomal protein L 12 (RPL12) mRNA, blood): −4.8 fold
Mean fold variation (Ribosomal protein S 7 (RPS7) mRNA, blood): −6.4 fold
Mean fold variation (SABP1 (elk4) (ELK4) mRNA, blood): +6.4 fold
Mean fold variation (Scaffold attachment protein (HNRPU) mRNA, blood): −7.1 fold
Mean fold variation (Selectin P ligand SELPLG mRNA, blood): −17.1 fold
Mean fold variation (Serine Threonine phosphatase (PPP2R1B) mRNA, blood): +5.1 fold
Mean fold variation (Single stranded DNA binding (SSBP) mRNA, blood): −8.5 fold
Mean fold variation (Small nuclear ribonucleoprotein (SNRPN) mRNA, blood): −2 fold
Mean fold variation (TAX REB 67 (ATF4) mRNA, blood): −22.6 fold
Mean fold variation (TF lia transcription factor mRNA, blood): −16.4 fold
Mean fold variation (TRMP2 Apolipoprotein J mRNA, blood): −6.8 fold
Mean fold variation (Taurine transporter (SLC6A6) mRNA, blood): +4.4 fold
Mean fold variation (Thioredoxin binding protein/Vit. D3 Up regulated protein (VDUP1) mRNA, blood): −5.4 fold
Mean fold variation (Thromboxane A2 receptor (TBXA2R) mRNA, blood): −9.3 fold
Mean fold variation (Thymosin beta (TMSB10) mRNA, blood): −7.5 fold
Mean fold variation (Transaldolase mRNA, blood): −3.1 fold
Mean fold variation (Translationally controlled tumor protein (TPT1) mRNA, blood): −3.2 fold
Mean fold variation (Tyrosine phosphatase (huPP1) (PTP4A2) mRNA, blood): −5.7 fold
Mean fold variation (Ubiquitin like protein (UBL4) mRNA, blood): −21.5 fold
Mean fold variation (Vacuolar H + ATPase (ATP6N1A) mRNA, blood): +1.8 fold
Mean fold variation (Vimentin (VIM) mRNA, blood): −7 fold
Mean fold variation (Wilms tumor related protein mRNA, blood): −4 fold
Mean fold variation (Zinc finger protein ZNF141 mRNA, blood): +3.2 fold
CD8+ T lymphocytes in the blood (after treatment): slightly more represented
proportion of T cell expressing CD3 in the blood (after treatment): does not affect
expression of genes of the Macrolactam target pathway (Macrophilin 12), cellular activation and proliferation (Histone2, Histone 3.3, cyclin D2) (among blood cells): down regulate
FKBP12 at the level of RNA synthesis (blood): strongly down regulated
Kallistatin expression (blood): up-regulated
expression of inflammatory mediators (Leukotriene A4 hydrolase, Prostaglandin endoperoxide synthase) (blood cells): strongly down regulate
genes involved in asthma physiopathology (RANTES, GALECTIN-3, Thromboxane A2 receptor) (blood cells): markedly down regulated
genes necessary for chemotaxis and cellular migration, including LFA-1, P-Selectin ligand and L-Selectin (blood cells): dramatic down regulation
CD3 expression level (blood, after treatment): unchanged
granzyme A and B expression (blood, after treatment): increase
genes involved in any known adverse side effect or toxicity pathway (expression profile, blood): no consistent pattern of alteration; also recorded: No gene linked to a possible adverse effect or to a toxicity pathway was found to be regulated
toxic effect in the expression profile (expression profile, blood): No obvious toxic effect
Mean fold variation (pM5 (PM5) mRNA, blood): −5.7 fold

From patent publication US20050181516A1, “Bioequivalence determination using expression profiling” (priority 2002, published 2005)
